Columns and labels:
[1] = Photoluminescence quantum yield and Stokes shift in MeCN; assay type: physicochemical
Procedure: This example describes general materials and methods used in the synthesis and characterization of exemplary host compounds. All solvents were dried over 3 Å molecular sieves unless otherwise stated. THF, Et3N, and CH2Cl2 were respectively distilled from potassium metal and CaH2 prior to use. All other materials were obtained from TCI-America, Sigma-Aldrich, Acros and Strem and used as received. ^1H and ^13C NMR spectra were recorded using a Varian Inova 300 (^1H 299.95 MHz, ^13C 75.43 MHz) or Inova 500 (^1H 500.10 MHz, ^13C 125.75 MHz) spectrometer. Chemical shifts (δ) expressed as ppm downfield from tetramethylsilane using either the residual solvent peak as an internal standard (CDCl3 ^1H, 7.27 ppm) or using CDCl3 spiked with 1% […] for the ^1H NMR spectra. For the ^13C NMR spectra the middle CDCl3 peak (δ 77.00 ppm) was used as the internal standard. Signal patterns are indicated as b, broad; s, singlet; d, doublet; t, triplet; m, multiplet. Coupling constants (J) are given in hertz. UV-Vis spectra were recorded using a Hewlett-Packard 8453 spectrophotometer and extinction coefficients are expressed in M^−1 cm^−1. Mass spectra were recorded using an Agilent 1100 Series LC/MSD. Emission spectra were recorded on a Hitachi F-4500 fluorescence spectrophotometer. Melting points were determined with a Meltemp II apparatus or a TA Instruments DSC 2920 Modulated DSC. […]

[2] = Absorption/fluorescence response upon addition of TFA; conditions: reversed by aqueous base
Description: The absorption spectra of compounds 6-8 and 10 are dominated by a characteristic pattern consisting of three peaks. There is a lack of significant spectral changes associated with conversion of diamide 8 to disulfide 10, which is not unexpected, as overall conjugation remains limited by the methylene spacer.

Quantum Yield (PLQY) [1]	Stokes Shift [1]	SMILES	spectral change upon addition of TFA [2]
0.6%	5270 cm⁻¹	CC(C)(C)c1ccc(N)c(C#Cc2cccc(C#Cc3cc(C(C)(C)C)ccc3N)n2)c1 [Dianiline 6, 2,2′-(pyridine-2,6-diylbis(ethyne-2,1-diyl))bis(4-tert-butylaniline)]	
		CC(C)(C)c1ccc2c(c1)C#Cc1cccc(n1)C#Cc1cc(C(C)(C)C)ccc1NC(=O)CSSCC(=O)N2 [disulfide 10]	conversion from a colorless solution with purple fluorescence to a deep yellow solution with yellow fluorescence
